From ChEMBL document CHEMBL1141937, “Inhibition of Tpl2 kinase and TNF-alpha production with 1,7-naphthyridine-3-carbonitriles: synthesis and structure-activity relationships” (Bioorg Med Chem Lett, 2005)
Converted amounts (≈) assume the structure as drawn.

Tests used:
[1] = target: T1, Mitogen-activated protein kinase kinase kinase 8 (Homo sapiens, UniProt P41279); experiment: Inhibitory activity against human Tpl2 kinase via quantification of MEK phosphorylation; type: functional
Target sequence in this assay (P41279 whole entry): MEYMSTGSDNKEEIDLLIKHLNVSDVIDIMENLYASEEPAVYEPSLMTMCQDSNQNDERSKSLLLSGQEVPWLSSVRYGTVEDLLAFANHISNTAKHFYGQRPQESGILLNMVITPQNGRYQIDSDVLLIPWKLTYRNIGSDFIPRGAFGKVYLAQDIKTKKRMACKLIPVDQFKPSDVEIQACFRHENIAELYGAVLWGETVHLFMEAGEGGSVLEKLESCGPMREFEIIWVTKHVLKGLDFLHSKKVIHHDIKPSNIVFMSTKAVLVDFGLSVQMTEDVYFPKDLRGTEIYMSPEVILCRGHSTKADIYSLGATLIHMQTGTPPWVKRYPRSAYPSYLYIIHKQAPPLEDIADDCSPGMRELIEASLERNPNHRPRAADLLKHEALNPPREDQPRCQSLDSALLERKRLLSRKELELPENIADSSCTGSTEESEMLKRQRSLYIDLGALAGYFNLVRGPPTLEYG

[2] = target: Protein kinase C (PKC); experiment: Inhibitory activity against PKC; type: protein assay
[3] = target: Proto-oncogene tyrosine-protein kinase Src (Homo sapiens, UniProt P12931); experiment: Inhibitory activity against Src
Chain of Proto-oncogene tyrosine-protein kinase Src (P12931 2-536 limits assumed): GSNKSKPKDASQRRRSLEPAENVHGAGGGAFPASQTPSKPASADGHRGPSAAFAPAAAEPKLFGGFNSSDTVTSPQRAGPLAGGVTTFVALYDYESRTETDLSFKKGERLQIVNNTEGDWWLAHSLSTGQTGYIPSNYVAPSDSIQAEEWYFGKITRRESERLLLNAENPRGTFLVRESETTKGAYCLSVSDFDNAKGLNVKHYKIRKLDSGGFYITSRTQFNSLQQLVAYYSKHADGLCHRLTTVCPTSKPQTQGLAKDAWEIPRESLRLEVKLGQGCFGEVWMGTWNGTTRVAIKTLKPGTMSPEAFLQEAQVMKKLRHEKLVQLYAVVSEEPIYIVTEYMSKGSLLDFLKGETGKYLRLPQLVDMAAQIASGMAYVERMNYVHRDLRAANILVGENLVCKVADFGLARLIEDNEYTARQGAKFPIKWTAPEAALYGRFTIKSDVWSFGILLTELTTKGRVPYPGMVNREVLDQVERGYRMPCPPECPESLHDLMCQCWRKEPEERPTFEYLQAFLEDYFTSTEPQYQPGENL

[4] = target: Dual specificity mitogen-activated protein kinase kinase 1 (Homo sapiens, UniProt Q02750); experiment: Inhibitory activity against MEK
Chain of Dual specificity mitogen-activated protein kinase kinase 1 (Q02750 whole entry): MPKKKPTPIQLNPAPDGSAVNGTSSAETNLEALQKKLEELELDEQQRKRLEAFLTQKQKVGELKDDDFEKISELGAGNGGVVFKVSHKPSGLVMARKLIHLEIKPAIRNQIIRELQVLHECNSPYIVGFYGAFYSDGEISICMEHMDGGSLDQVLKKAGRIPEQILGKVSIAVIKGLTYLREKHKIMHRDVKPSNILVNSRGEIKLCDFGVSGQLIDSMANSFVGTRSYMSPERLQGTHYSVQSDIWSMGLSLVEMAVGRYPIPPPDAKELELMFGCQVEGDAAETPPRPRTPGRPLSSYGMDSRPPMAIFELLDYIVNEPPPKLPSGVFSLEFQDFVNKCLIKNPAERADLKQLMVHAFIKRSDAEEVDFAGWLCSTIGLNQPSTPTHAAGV

[5] = target: MAP kinase-activated protein kinase 2 (Homo sapiens, UniProt P49137); experiment: Inhibitory activity against MK2
Chain of MAP kinase-activated protein kinase 2 (P49137 whole entry): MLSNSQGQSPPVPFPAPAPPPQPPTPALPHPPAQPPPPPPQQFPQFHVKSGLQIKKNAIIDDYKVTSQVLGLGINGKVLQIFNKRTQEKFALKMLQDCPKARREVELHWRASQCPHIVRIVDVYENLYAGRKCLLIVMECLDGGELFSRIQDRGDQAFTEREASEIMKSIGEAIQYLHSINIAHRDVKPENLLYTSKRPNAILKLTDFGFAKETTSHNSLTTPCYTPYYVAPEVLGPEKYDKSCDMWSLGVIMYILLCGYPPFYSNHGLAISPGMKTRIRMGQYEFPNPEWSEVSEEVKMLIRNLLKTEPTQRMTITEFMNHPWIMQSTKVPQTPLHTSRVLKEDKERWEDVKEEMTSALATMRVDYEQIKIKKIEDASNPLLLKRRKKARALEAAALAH

[6] = Solubility determined; type: physicochemical
[7] = Plasma binding to human serum albumin; type: ADME; conditions: read-out: PPB (converted)
[8] = target: MAP kinase p38 (Homo sapiens, UniProt O15264+Q15759+Q16539+P53778); experiment: Inhibitory activity against p38; type: protein assay
[9] = target: T1, Mitogen-activated protein kinase kinase kinase 8; experiment: Inhibition of LPS-induced TNFalpha production in human whole blood
Target sequence in this assay (P41279 whole entry, looked up): as the sequence (P41279 whole entry) above

[10] = target: T1, Mitogen-activated protein kinase kinase kinase 8; experiment: Inhibition of LPS-induced TNFalpha production in primary human monocytes
Target sequence in this assay (P41279 whole entry, looked up): as the sequence (P41279 whole entry) above

Question: With `CC[C@H](Nc1cc2c(Nc3ccc(F)c(Cl)c3)c(C#N)cnc2cn1)c1ccccc1` as the compound, how does the IC50 [1] read?
Answer: > 40 µM

Question: With `N#Cc1cnc2cnc(NC(CN3CCOCC3)c3ccccc3)cc2c1Nc1ccc(F)c(Cl)c1` (stereo unspecified) as the compound, how does the IC50 [1] read?
Answer: 1.8 µM

Question: For `N#Cc1cnc2cnc(NCCN3CCOCC3)cc2c1Nc1ccc(Cl)cc1`, which IC50 [1] is on record?
Answer: > 40 µM

Question: Which IC50 [1] does the source give for `N#Cc1cnc2cnc(NCCN3CCOCC3)cc2c1Nc1ccc(Cl)cc1F` here?
Answer: 10 µM

Question: Which IC50 [1] does the source give for `N#Cc1cnc2cnc(NCCN3CCOCC3)cc2c1Nc1ccc(Cl)c(Cl)c1` here?
Answer: 10 µM

Question: Which IC50 [2] does the source give for `N#Cc1cnc2cnc(NCCN3CCOCC3)cc2c1Nc1ccc(F)c(Cl)c1` here?
Answer: 30 µM

Question: What about the IC50 [3] of the same compound?
Answer: 40 µM

Question: And the IC50 [4]?
Answer: 15 µM

Question: And the IC50 [5]?
Answer: > 400 µM

Question: What about the solubility ([6]; read-out: Solubility) of the same compound?
Answer: 64 µg/mL (≈ 150 µM)

Question: And the fraction unbound [7]?
Answer: 0.15

Question: With `N#Cc1cnc2cnc(NCCN3CCOCC3)cc2c1Nc1ccc(C(F)(F)F)cc1` as the compound, how does the IC50 [1] read?
Answer: > 40 µM

Question: For `N#Cc1cnc2cnc(NCCCN3CCOCC3)cc2c1Nc1ccc(F)c(Cl)c1`, which IC50 [1] is on record?
Answer: 3.4 µM

Question: For `CN(Cc1ccccc1)c1cc2c(Nc3ccc(F)c(Cl)c3)c(C#N)cnc2cn1`, which IC50 [1] is on record?
Answer: > 40 µM

Question: Which IC50 [1] does the source give for `N#Cc1cnc2cnc(NCCN3CCOCC3)cc2c1Nc1ccc(S(=O)(=O)c2ccccc2)cc1` here?
Answer: > 40 µM

Question: Which IC50 [1] does the source give for `Cc1c(Br)cccc1Nc1c(C#N)cnc2cnc(NCCN3CCOCC3)cc12` here?
Answer: > 40 µM

Question: With `N#Cc1cnc2cnc(NC3CCCC3)cc2c1Nc1ccc(F)c(Cl)c1` as the compound, how does the IC50 [1] read?
Answer: > 40 µM

Question: For `N#Cc1cnc2cnc(NCCN3CCOCC3)cc2c1Nc1ccc(Sc2ccccc2)cc1`, which IC50 [2] is on record?
Answer: > 400 µM

Question: And the IC50 [3]?
Answer: 3 µM

Question: And the IC50 [4]?
Answer: 0.96 µM

Question: What about the IC50 [5] of the same compound?
Answer: > 400 µM

Question: What about the solubility ([6]; read-out: Solubility) of the same compound?
Answer: 1 µg/mL (≈ 2.07 µM)

Question: And the fraction unbound [7]?
Answer: < 0.01

Question: With `N#Cc1cnc2cnc(NCc3ccccc3)cc2c1Nc1ccc(F)c(Cl)c1` as the compound, how does the IC50 [1] read?
Answer: 0.073 µM

Question: With `N#Cc1cnc2cnc(NCc3cccnc3)cc2c1Nc1ccc(F)c(Cl)c1` as the compound, how does the IC50 [2] read?
Answer: > 400 µM

Question: And the IC50 [3]?
Answer: > 400 µM

Question: And the IC50 [4]?
Answer: > 40 µM

Question: What about the IC50 [5] of the same compound?
Answer: 110 µM

Question: And the solubility ([6]; read-out: Solubility)?
Answer: 2 µg/mL (≈ 4.94 µM)

Question: What about the fraction unbound [7] of the same compound?
Answer: 0.02

Question: For `C[C@H](Nc1cc2c(Nc3ccc(F)c(Cl)c3)c(C#N)cnc2cn1)c1ccccc1`, which IC50 [1] is on record?
Answer: 27 µM

Question: With `CN1CCN(CCCNc2cc3c(Nc4ccc(F)c(Cl)c4)c(C#N)cnc3cn2)CC1` as the compound, how does the IC50 [1] read?
Answer: 21 µM

Question: With `N#Cc1cnc2cnc(NCCN3CCOCC3)cc2c1Nc1ccc(Oc2ccccc2)cc1` as the compound, how does the IC50 [2] read?
Answer: 200 µM

Question: And the IC50 [3]?
Answer: 90 µM

Question: And the IC50 [1]?
Answer: 0.38 µM

Question: And the IC50 [4]?
Answer: 0.8 µM

Question: What about the IC50 [5] of the same compound?
Answer: > 400 µM

Question: And the solubility ([6]; read-out: Solubility)?
Answer: 1 µg/mL (≈ 2.14 µM)

Question: What about the fraction unbound [7] of the same compound?
Answer: < 0.01

Question: For `N#Cc1cnc2cnc(NCCN3CCOCC3)cc2c1NCc1ccc(F)c(Cl)c1`, which IC50 [1] is on record?
Answer: > 40 µM

Question: For `N#Cc1cnc2cnc(NCCN3CCOCC3)cc2c1Nc1ccc(Cc2ccccc2)cc1`, which IC50 [2] is on record?
Answer: > 400 µM

Question: What about the IC50 [8] of the same compound?
Answer: > 400 µM

Question: And the IC50 [3]?
Answer: 4 µM

Question: And the IC50 [1]?
Answer: 0.002 µM

Question: What about the IC50 [4] of the same compound?
Answer: 0.63 µM

Question: What about the IC50 [5] of the same compound?
Answer: > 400 µM

Question: And the solubility [6]?
Answer: Insoluble

Question: And the fraction unbound [7]?
Answer: 0.01

Question: And the IC50 [9]?
Answer: 13.6 µM

Question: What about the IC50 [10] of the same compound?
Answer: 0.8 µM

Question: With `N#Cc1cnc2cnc(NCCCN3CCCC3)cc2c1Nc1ccc(F)c(Cl)c1` as the compound, how does the IC50 [1] read?
Answer: 3.57 µM
